Source: patent US10969387B2, “Compounds, complexes, and methods useful for detecting and/or treating bacterial pathogens” (REGENTS OF THE UNIVERSITY OF MINNESOTA, priority 2015, dated 2021)

Assays:
[1] = target: FepA (Escherichia coli, UniProt P05825); conditions: Thulasiraman et al., J Bacteriol. 1998; cited from earlier work
[2] = test system: E. coli; conditions: Thulasiraman et al., J Bacteriol. 1998; cited from earlier work
[3] = test system: E. coli; test: Bacteria detection by fluorescence in T media (probe uptake), E. coli; assay type: cell-based; conditions: dye not conjugated to an enterobactin analogue; control experiment (FIG. 28)
Description: Sample Processing for Bacteria Detection by Fluorescence in T Media Experiments with Bacteria Genus
• 1. Bacteria is prepared • a. Sub bacteria onto blood agar and incubate overnight • b. Select several colonies and grow overnight in LB media at 37° C. in room air on orbital shaker • c. 100 μl of overnight culture is placed into 100 ml T media, incubated for 5 hours (E. coli, Salmonella, A. baumannii, Klebsiella pneumoniae) or 10 hours (B. subtillus, S. aureus) • d. Quantitate using 1:10 dilution and plating 100 μl of dilutions onto blood agar • 2. Prepare the samples in 1.5 microcentrifuge tubes, vortex, in triplicate • a. For each bacteria • i. 1 ml bacteria+25 μl Tris • ii. 1 ml bacteria+25 μl Probe • b. For each run include controls • i. 1 ml T media+25 μl Tris • ii. […] 24+ hours count colonies on quantitative cultures
The effect of probe chemical structure on response can be seen in FIG. 28 in an increase in fluorescence intensity after incubation of E. coli with Ga-TREN-CAM-C2-OG (example 1), Ga-TREN-GlyCAM-GluCAM-OG (example 2), Ga-3,3-LiCAM-GluCAM-OG (example 4), Ga-2,2-LiCAM-GluCAM (example 5), and the non-targeted dye OREGON GREEN dye. […]
The effect of metal ion on probe uptake can be seen in FIG. 29 in anincrease in fluorescence intensity after incubation of E. coli with Ga-3,3-LiCAM-GluCAM-OG, Fe-3,3-LiCAM-GluCAM, the apo probe, 3,3-LiCAM-GluCAM-OG, and the non-target OREGON GREEN dye. […]

Sequence of FepA (P05825 23-746): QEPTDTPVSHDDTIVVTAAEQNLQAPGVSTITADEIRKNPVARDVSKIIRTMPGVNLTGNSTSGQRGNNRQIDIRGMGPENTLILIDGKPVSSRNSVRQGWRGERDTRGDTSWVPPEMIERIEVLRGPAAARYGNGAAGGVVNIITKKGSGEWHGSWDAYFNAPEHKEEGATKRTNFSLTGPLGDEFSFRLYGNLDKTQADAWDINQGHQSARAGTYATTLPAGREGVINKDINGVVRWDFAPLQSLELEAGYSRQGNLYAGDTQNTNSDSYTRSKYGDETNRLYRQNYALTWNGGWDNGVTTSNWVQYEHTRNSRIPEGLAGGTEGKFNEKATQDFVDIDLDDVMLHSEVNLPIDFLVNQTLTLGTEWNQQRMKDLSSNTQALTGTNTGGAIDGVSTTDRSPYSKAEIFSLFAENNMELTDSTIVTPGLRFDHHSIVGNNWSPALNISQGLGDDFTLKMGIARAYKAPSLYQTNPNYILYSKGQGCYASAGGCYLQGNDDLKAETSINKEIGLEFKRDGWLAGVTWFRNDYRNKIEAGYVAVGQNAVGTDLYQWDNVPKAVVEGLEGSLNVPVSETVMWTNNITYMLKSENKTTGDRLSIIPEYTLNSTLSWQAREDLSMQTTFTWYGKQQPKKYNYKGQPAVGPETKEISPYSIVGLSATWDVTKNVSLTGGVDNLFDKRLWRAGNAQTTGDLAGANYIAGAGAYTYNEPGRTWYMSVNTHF

Compound | recognition by FepA [1] | uptake by E. coli [2] | accumulation in bacteria [3]
O=C(NCCN(CCNC(=O)c1cccc(O)c1O)CCNC(=O)c1cccc(O)c1O)c1cccc(O)c1O [TREN-CAM] | recognized by FepA | actively taken up by E. coli | 
OREGON GREEN |  |  | does not accumulate in bacteria
